16 molecules from patent US20250026721A1, “COMPOUNDS AND METHODS FOR MODULATING RAS-PI3K” (Vividion Therapeutics, Inc., priority 2023, published 2025) can be followed below.

In experiment [1] the target is T1, PIK3CA (Homo sapiens, UniProt P42336).
T1 construct: endogenous in cells; host or cells: Jurkat cell lysate
The experiment is described as follows: In vitro ELISA target engagement assay for PIK3CA in Jurkat cellular lysate (competition with PIK3CA Biotin Probe). The class given is binding. The settings on record: 1 hour at rt, then 500 nM PIK3CA Biotin Probe, read-out: Elisa Target Engagement Assay (TE50). An outline of the steps:
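Competition format in Jurkat lysate: compound (serial dilutions, top 200 μM) for 1 h at rt, then 500 nM final biotinylated PIK3CA probe for 1 h at rt. Sandwich ELISA with capture antibody and Neutravidin-HRP luminescence read-out measured probe-labelled PIK3CA, giving TE50.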
For orientation: In an ELISA, binding on a coated surface is turned into a signal by an enzyme label.

Experiment [2] concerns the target T2, PIK3CA_C242 (Homo sapiens, UniProt P42336).
T2 construct: endogenous in cells; host or cells: Jurkat cell lysate
The experiment is described as follows: Proteomic TE50 (IA-DTB / TMT mass spectrometry) in Jurkat cell lysate. The class given is binding. The settings on record: 1 hour at rt, 7-point dose response. An outline of the steps:
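Cysteine engagement was read by targeted TMT MS3 of the IA-DTB-labelled, streptavidin-enriched C242 tryptic peptide. Beforehand, Jurkat lysate was exposed to a 7-point 1:5 compound series for 1 h at rt, then to 200 μM IA-DTB for 1 h. Reporter S/N curves gave TE50.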

In experiment [3] the test system is pAKT(S473) in FaDu cell line. The experiment is described as follows: In vitro Phospho-AKT(S473) HTRF analysis in FaDu cells. The class given is cell-based. The note with it: Homo sapiens, 0.5 h; for IC50: FaDu cells, 30 minutes at 37° C.; for Emax: FaDu, read-out: FaDu pAKT Imax % control. In short, it runs like this: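 FaDu or H358 cells were plated overnight in medium with 1% FBS, then exposed to a compound dose response for 30 minutes at 37° C. Phospho-AKT(S473) levels were measured by HTRF.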

Experiment [4] deals with pAKT(S473) in H358 cell line. The experiment is described as follows: In vitro Phospho-AKT(S473) HTRF analysis in H358 cells. The class given is cell-based. The note with it: Homo sapiens, NCI-H358, 0.5 h; for IC50: H358 cells, 30 minutes at 37° C.; for Emax: read-out: H358 pAKT Imax % control. The procedure: Example 5. In Vitro Phosgho-AKT(S473) Analysis
Functional activity of the compounds to inhibit pAKT were assessed in FaDu or H358 cell lines as indicated below.
• Complete Media • FBS, Corning catalog #35-010-CV • Anti-Anti, Gibco catalog #15240-062 • 96 well plate, Corning catalog #3610 • TrypLE, Gibco catalog #12604013 • Phospho-AKT(S473) HTRF kit, Cisbio catalog #64AKSPET
Cells were detached from the tissue culture flask with TrypLE. The cells were pelleted at 500×g for 5 min, TrypLe was removed and then resuspended in the necessary volume of media+1% FBS to give the appropriate cell density (17,500 cells/mL for FaDu; 20,000 cells/mL for H358). 100 μL of cell suspension/well was dispensed into the 96-well plate while keeping the outer wells of the plate free of cells and filled with PBS to prevent evaporation of interior wells. The plate was incubated at 37° C. and allowed to adhere overnight. The cells were treated with a dose response of compound and incubated at 37° C. for 30 minutes. The cells were then processed and pAKT(S473) levels were assessed following the specifications of the Cisbio HTRF kit.
In general terms: In TR-FRET formats the signal depends on donor and acceptor labels being close together.

T1 sequence (P42336 whole entry): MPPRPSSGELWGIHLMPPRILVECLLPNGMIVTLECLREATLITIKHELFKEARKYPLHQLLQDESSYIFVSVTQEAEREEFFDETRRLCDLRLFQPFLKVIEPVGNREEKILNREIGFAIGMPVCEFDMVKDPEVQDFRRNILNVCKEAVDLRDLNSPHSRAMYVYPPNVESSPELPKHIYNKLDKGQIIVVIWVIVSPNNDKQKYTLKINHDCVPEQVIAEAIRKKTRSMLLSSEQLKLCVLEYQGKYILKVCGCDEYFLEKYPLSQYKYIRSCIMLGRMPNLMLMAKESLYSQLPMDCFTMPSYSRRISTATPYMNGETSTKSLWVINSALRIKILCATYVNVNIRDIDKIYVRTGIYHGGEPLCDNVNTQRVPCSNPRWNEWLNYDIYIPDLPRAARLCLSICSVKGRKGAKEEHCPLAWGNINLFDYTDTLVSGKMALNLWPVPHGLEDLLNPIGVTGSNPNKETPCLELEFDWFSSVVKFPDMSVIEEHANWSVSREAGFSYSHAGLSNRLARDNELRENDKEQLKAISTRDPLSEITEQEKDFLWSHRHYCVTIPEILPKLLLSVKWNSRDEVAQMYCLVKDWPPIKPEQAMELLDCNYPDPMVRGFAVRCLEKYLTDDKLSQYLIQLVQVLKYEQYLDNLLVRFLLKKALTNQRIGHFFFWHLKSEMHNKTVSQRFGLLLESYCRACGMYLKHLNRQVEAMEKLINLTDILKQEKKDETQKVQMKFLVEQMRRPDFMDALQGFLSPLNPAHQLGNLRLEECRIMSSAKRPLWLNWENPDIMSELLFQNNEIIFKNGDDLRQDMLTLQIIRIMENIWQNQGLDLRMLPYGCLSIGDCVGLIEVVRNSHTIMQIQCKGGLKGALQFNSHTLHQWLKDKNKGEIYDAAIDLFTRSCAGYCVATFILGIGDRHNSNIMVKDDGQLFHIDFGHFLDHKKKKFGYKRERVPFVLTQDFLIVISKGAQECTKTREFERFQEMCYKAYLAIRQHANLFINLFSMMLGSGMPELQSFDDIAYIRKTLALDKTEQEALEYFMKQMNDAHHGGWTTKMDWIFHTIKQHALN
T1 sequence (P27986 whole entry partner): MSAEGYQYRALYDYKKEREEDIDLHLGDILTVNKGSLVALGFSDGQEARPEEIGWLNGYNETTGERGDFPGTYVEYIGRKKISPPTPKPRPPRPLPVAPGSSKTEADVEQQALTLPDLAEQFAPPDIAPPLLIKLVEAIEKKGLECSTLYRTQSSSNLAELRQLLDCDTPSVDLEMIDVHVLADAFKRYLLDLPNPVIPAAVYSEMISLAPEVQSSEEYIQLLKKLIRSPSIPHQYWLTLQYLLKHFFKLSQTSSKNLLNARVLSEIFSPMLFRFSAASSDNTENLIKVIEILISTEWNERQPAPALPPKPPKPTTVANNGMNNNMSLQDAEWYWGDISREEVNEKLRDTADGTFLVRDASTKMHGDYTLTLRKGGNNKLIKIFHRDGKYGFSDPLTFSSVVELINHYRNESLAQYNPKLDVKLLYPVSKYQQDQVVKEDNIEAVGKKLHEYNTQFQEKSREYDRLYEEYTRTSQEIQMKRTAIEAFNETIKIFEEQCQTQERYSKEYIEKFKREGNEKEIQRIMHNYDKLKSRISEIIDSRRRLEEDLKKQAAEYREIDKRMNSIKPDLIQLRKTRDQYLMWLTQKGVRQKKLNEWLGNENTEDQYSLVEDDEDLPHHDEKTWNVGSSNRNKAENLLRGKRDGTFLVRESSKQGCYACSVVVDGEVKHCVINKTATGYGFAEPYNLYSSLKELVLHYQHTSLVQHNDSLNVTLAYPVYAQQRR
T2 sequence (P42336 whole entry): as the sequence (P42336 whole entry) above
T2 sequence (P27986 whole entry partner): as the sequence (P27986 whole entry partner) above

For `C[C@H](/C=C/C(=O)N1CC(F)(F)C1)NC(=O)C1(F)CCN(S(=O)(=O)c2ccc(C(F)(F)F)cc2-c2ccccc2Cl)CC1` [Compound 134, 1-[2-(2-chlorophenyl)-4-(trifluoromethyl)phenyl]sulfonyl-4-fluoro-N—[(E,1R)-4-(3,3-difluoroazetidin-1-yl)-1-methyl-4-oxo-but-2-enyl]piperidine-4-carboxamide], the results for the IC50 in experiment [1], in experiment [2] and in experiment [3] were 177 nM, 150 nM and 348 nM, respectively. In experiment [3], the Emax amounted to 96.3%.

As for `C[C@H]1C[C@](F)(C(=O)N[C@@H]2C=CS(=O)(=O)C2)CCN1C(=O)[C@@H]1CN(CC(C)(F)F)C[C@@H]1c1cccc(F)c1Cl` (single isomer, unassigned) [Compound 225, (2*S,4*S)-1-((3*S,4*S)-4-(2-chloro-3-fluorophenyl)-1-(2,2-difluoropropyl)pyrrolidine-3-carbonyl)-N-((R)-1,1-dioxido-2,3-dihydrothiophen-3-yl)-4-fluoro-2-methylpiperidine-4-carboxamide], in experiment [1], the IC50 amounted to 640 nM. In addition, in experiment [4], the IC50 is 465 nM and the Emax is 78.8%.

With `C[C@H](/C=C\S(C)(=O)=O)NC(=O)C1(F)CCN(S(=O)(=O)c2ccc(C#N)cc2-c2ccccc2Cl)CC1` [Compound 35, (R,Z)-1-((2′-chloro-5-cyano-[1,1′-biphenyl]-2-yl)sulfonyl)-4-fluoro-N-(4-(methylsulfonyl)but-3-en-2-yl)piperidine-4-carboxamide], the IC50 in experiment [1] worked out at 165 nM; in experiment [2], 140 nM; in experiment [3], 330 nM. The Emax in experiment [3] was determined as 103%.

On to `Cc1ccccc1[C@@H]1CN(CC(F)(F)F)C[C@@H]1C(=O)N1CCC[C@](F)(C(=O)N[C@H](C)/C=C\S(C)(=O)=O)CC1` (single isomer, unassigned) [Compound 224, (R)-4-fluoro-N-((R,Z)-4-(methylsulfonyl)but-3-en-2-yl)-1-((3*R,4*R)-4-(o-tolyl)-1-(2,2,2-trifluoroethyl)pyrrolidine-3-carbonyl) azepane-4-carboxamide], for which the IC50 in experiment [1] is 520 nM; in experiment [4] it was 326 nM. For the same molecule, the Emax in experiment [4] was found to be 81.2%.

With `C[C@H](/C=C\S(C)(=O)=O)NC(=O)C1(F)CCN(S(=O)(=O)c2ccc(C(F)(F)F)cc2-c2ccccc2Cl)CC1` [Compound 33, (R,Z)-1-((2′-chloro-5-(trifluoromethyl)-[1,1′-biphenyl]-2-yl)sulfonyl)-4-fluoro-N-(4-(methylsulfonyl)but-3-en-2-yl)piperidine-4-carboxamide], the IC50 was 158 nM in experiment [1], 133 nM in experiment [2] and 409 nM in experiment [3]. Further, the Emax in experiment [3] was 86.2%.

Regarding `C[C@H](/C=C\S(C)(=O)=O)NC(=O)[C@@]1(F)CCCN(C(=O)[C@@H]2CN(CC(F)(F)F)C[C@@H]2c2c(F)cc(F)cc2Cl)CC1` (single isomer, unassigned) [Compound 227, (R)-1-((3*S,4*S)-4-(2-chloro-4,6-difluorophenyl)-1-(2,2,2-trifluoroethyl)pyrrolidine-3-carbonyl)-4-fluoro-N-((R,Z)-4-(methylsulfonyl)but-3-en-2-yl)azepane-4-carboxamide], the IC50 in experiment [1] amounted to 340 nM. In addition, in experiment [4], the IC50 is 250 nM and the Emax was determined as 102%.

For `C[C@H](/C=C/S(C)(=O)=O)NC(=O)[C@@]1(F)CCCN(C(=O)[C@H]2CN(CC(F)(F)F)C[C@H]2c2c(F)cccc2Cl)CC1` [Compound 296, (R)-1-((3R,4R)-4-(2-chloro-6-fluorophenyl)-1-(2,2,2-trifluoroethyl)pyrrolidine-3-carbonyl)-4-fluoro-N-((R,E)-4-(methylsulfonyl)but-3-en-2-yl)azepane-4-carboxamide], the IC50 in experiment [1] was 400 nM; in experiment [4], 642 nM. For the same molecule, the Emax in experiment [4] worked out at 69.4%.

As for `COc1ccc(S(=O)(=O)N2CC[C@@](F)(C(=O)N[C@H](C)/C=C/C(=O)N3CC(F)(F)C3)C[C@H]2C)c(-c2ccccc2Cl)c1` [Compound 151, (2R,4S)-1-((2′-chloro-5-methoxy-[1,1′-biphenyl]-2-yl)sulfonyl)-N-((R,E)-5-(3,3-difluoroazetidin-1-yl)-5-oxopent-3-en-2-yl)-4-fluoro-2-methylpiperidine-4-carboxamide], the IC50 is 226 nM in experiment [1], 200 nM in experiment [2] and 284 nM in experiment [3]. The Emax in experiment [3] turned out to be 100%.

Take `C[C@H](/C=C\S(C)(=O)=O)NC(=O)[C@@]1(F)CCCN(C(=O)[C@H]2CN(CC(C)(F)F)C[C@H]2c2c(F)cccc2Cl)CC1` (single isomer, unassigned) [Compound 183]: the IC50 in experiment [1] stood at 78 nM. Further, in experiment [4], the IC50 came out at 56.6 nM and the Emax came out at 93.2%.

`COc1ccc(S(=O)(=O)N2CC[C@@](F)(C(=O)N[C@H](C)/C=C\S(C)(=O)=O)C[C@H]2C)c(-c2ccccc2Cl)c1` [Compound 141, (2R,4S)-1-[2-(2-chlorophenyl)-4-methoxy-phenyl]sulfonyl-4-fluoro-2-methyl-N—[(Z,1R)-1-methyl-3-methylsulfonyl-allyl]piperidine-4-carboxamide]: the figures for the IC50 in experiment [1], in experiment [2] and in experiment [3] were 75 nM, 50 nM and 82.4 nM, respectively. Moreover, the Emax in experiment [3] came out at 102%.

The molecule `COc1cc(-c2ccccc2Cl)c(S(=O)(=O)N2CCC(F)(C(=O)N[C@@H](C)/C=C\S(C)(=O)=O)CC2)cn1` [Compound 187, (S,Z)-1-((4-(2-chlorophenyl)-6-methoxypyridin-3-yl)sulfonyl)-4-fluoro-N-(4-(methylsulfonyl)but-3-en-2-yl)piperidine-4-carboxamide] returned an IC50 in experiment [2] of 68.1 nM. In experiment [3], the IC50 is 152 nM and the Emax amounted to 70.1%.

`C[C@H](/C=C/C(=O)N1CC(F)(F)C1)NC(=O)[C@@]1(F)CCCN(C(=O)c2ccc(Br)cc2-c2ccccc2Cl)CC1` [Compound 243, (R)-1-(5-bromo-2′-chloro-[1,1′-biphenyl]-2-carbonyl)-N-((R,E)-5-(3,3-difluoroazetidin-1-yl)-5-oxopent-3-en-2-yl)-4-fluoroazepane-4-carboxamide]: the IC50 in experiment [1] was 670 nM. Besides, in experiment [3], the IC50 was 761 nM and the Emax amounted to 68.7%.

With `COc1ccc(C(=O)N2CCC[C@](F)(C(=O)N[C@@H]3C=CS(=O)(=O)C3)CC2)c(-c2ccccc2Cl)c1` [Compound 294, (R)-1-(2′-chloro-5-methoxy-[1,1′-biphenyl]-2-carbonyl)-N-((R)-1,1-dioxido-2,3-dihydrothiophen-3-yl)-4-fluoroazepane-4-carboxamide], the IC50 in experiment [1] was 120 nM; in experiment [3], 2120 nM.

Regarding `COCc1ccc(S(=O)(=O)N2CC[C@@](F)(C(=O)N[C@H](C)/C=C/C(=O)N3CC(F)(F)C3)C[C@H]2C)c(-c2ccccc2Cl)c1` [Compound 156, (2R,4S)-1-((2′-chloro-5-(methoxymethyl)-[1,1′-biphenyl]-2-yl)sulfonyl)-N-((R,E)-5-(3,3-difluoroazetidin-1-yl)-5-oxopent-3-en-2-yl)-4-fluoro-2-methylpiperidine-4-carboxamide], the IC50 in experiment [1] was determined as 520 nM. In experiment [3], the IC50 turned out to be 348 nM and the Emax was 99.2%.

On to `C[C@H](/C=C/C(=O)N1CC(F)(F)C1)NC(=O)[C@@]1(F)CCCN(C(=O)c2ccc(C(F)(F)F)cc2-c2c(F)cccc2Cl)CC1` [Compound 245, (4R)-1-(2′-chloro-6′-fluoro-5-(trifluoromethyl)-[1,1′-biphenyl]-2-carbonyl)-N-((R,E)-5-(3,3-difluoroazetidin-1-yl)-5-oxopent-3-en-2-yl)-4-fluoroazepane-4-carboxamide], for which the IC50 in experiment [1] stood at 620 nM. In addition, in experiment [3], the IC50 is 922 nM and the Emax is 86.2%.

`C[C@H](/C=C\S(C)(=O)=O)NC(=O)C1(F)CCN(S(=O)(=O)c2cnc(C(F)(F)F)cc2-c2ccccc2Cl)CC1` [Compound 207, (R,Z)-1-((4-(2-chlorophenyl)-6-(trifluoromethyl)pyridin-3-yl)sulfonyl)-4-fluoro-N-(4-(methylsulfonyl)but-3-en-2-yl)piperidine-4-carboxamide]: the IC50 is 184 nM in experiment [1], 150 nM in experiment [2] and 803 nM in experiment [3]. For the same molecule, the Emax in experiment [3] came to 75.2%.
